Source: patent US20240358693A1, “METHODS OF TREATING PAIN” (Aisa Pharma, Inc., priority 2023, published 2024)

Tested on: participants with SSc-RP
Assay: Average severity of weekly RP attacks (VAS 0-10 cm scale)
Assay type: in vivo, human
Excerpt: The absolute change in average severity of weekly RP attacks (VAS 0-10 cm scale) from baseline to the end of each Dosing Period was and will be a secondary outcome variable. The sponsor-developed participant-informed diary will be used to record data. Average severity of weekly RP attacks is defined as the total severity scores of RP attacks divided by total number of RP attacks within the last 7 days of each dosing period. Total severity scores of RP attacks during the last 7 days of screening period divided by the total number of RP attacks will be used as baseline for the analysis of all periods. The variable will be calculated similar to frequency data as before.

[1] = Pooled Cilnidipine 10 mg and Cilnidipine 10 mg + Tadalafil 5 mg, n=1, by Baseline RCS, second subgroup, ITT Population - Part A
[2] = Pooled Cilnidipine 10 mg and Cilnidipine 10 mg + Tadalafil 5 mg, n=2, by Baseline RCS, first subgroup, ITT Population - Part A
[3] = Pooled Cilnidipine 10 mg and Cilnidipine 10 mg + Tadalafil 5 mg, n=3, Excluding Outliers, ITT Population - Part A
[4] = Pooled Cilnidipine 10 mg and Cilnidipine 10 mg + Tadalafil 5 mg, n=3, ITT Population - Part A
[5] = Pooled Cilnidipine 10 mg and Cilnidipine 10 mg + Tadalafil 5 mg, Excluding Outliers, ITT Population - Part A
[6] = Pooled Cilnidipine 10 mg and Cilnidipine 10 mg + Tadalafil 5 mg, Excluding Outliers, by Baseline RCS, first subgroup, ITT Population - Part A
[7] = Pooled Cilnidipine 10 mg and Cilnidipine 10 mg + Tadalafil 5 mg, Excluding Outliers, by Baseline RCS, second subgroup, ITT Population - Part A
[8] = Pooled Cilnidipine 10 mg and Cilnidipine 10 mg + Tadalafil 5 mg, ITT Population - Part A
[9] = Pooled Cilnidipine 10 mg and Cilnidipine 10 mg + Tadalafil 5 mg, first Baseline RCS subgroup block (not named), ITT Part A
[10] = Pooled Cilnidipine 10 mg and Cilnidipine 10 mg + Tadalafil 5 mg, first Baseline RCS subgroup block (not named), ITT Part A, score 0-10
[11] = Pooled Cilnidipine 10 mg and Cilnidipine 10 mg + Tadalafil 5 mg, second Baseline RCS subgroup block (not named), ITT Part A
[12] = Pooled Cilnidipine 10 mg and Cilnidipine 10 mg + Tadalafil 5 mg, second Baseline RCS subgroup block (not named), ITT Part A, score 0-10
[13] = Pooled Cilnidipine 20 mg and Cilnidipine 20 mg + Tadalafil 5 mg, n=1, by Baseline RCS, second subgroup, ITT Population - Part A
[14] = Pooled Cilnidipine 20 mg and Cilnidipine 20 mg + Tadalafil 5 mg, n=3, by Baseline RCS, first subgroup, ITT Population - Part A

COCCOC(=O)C1=C(C)NC(C)=C(C(=O)OC/C=C/c2ccccc2)C1c1cccc([N+](=O)[O-])c1 (stereo not shown) [Cilnidipine, cilnidipine] was tested, and the “Average Severity of Weekly RP Attacks (All Attacks), Percent Change from Baseline, Median” value (Pooled (over cilnidipine doses), ITT Population - Part A) was −7.69%, the “Average Severity (0-10) of Weekly Symptomatic RP Attacks, Mean” value [1] was 5.23 and the “Average Severity (0-10) of Weekly Symptomatic RP Attacks, Median” value [1] was 5.23. For the same compound, the “Average Severity of Weekly Symptomatic RP Attacks, Change from Baseline, Mean” value [1] was −1.13, the “Average Severity of Weekly Symptomatic RP Attacks, Change from Baseline, Median” value [1] was −1.13 and the “Average Severity of Weekly Symptomatic RP Attacks, Percent Change from Baseline, Mean” value [1] was −17.81%. The “Average Severity of Weekly Symptomatic RP Attacks, Percent Change from Baseline, Median” value [1] was −17.81%, the “Average Severity (0-10) of Weekly Symptomatic RP Attacks, Mean” value [2] was 3.34 and the “Average Severity (0-10) of Weekly Symptomatic RP Attacks, Median” value [2] was 3.34. The “Average Severity of Weekly Symptomatic RP Attacks, Change from Baseline, Mean” value [2] was −1.22, the “Average Severity of Weekly Symptomatic RP Attacks, Change from Baseline, Median” value [2] was −1.22 and the “Average Severity of Weekly Symptomatic RP Attacks, Percent Change from Baseline, Mean” value [2] was −20.18%. For the same compound, the “Average Severity of Weekly Symptomatic RP Attacks, Percent Change from Baseline, Median” value [2] was −20.18%, the “Average Severity (0-10) of Weekly Symptomatic RP Attacks, Mean” value [3] was 3.97 and the “Average Severity (0-10) of Weekly Symptomatic RP Attacks, Median” value [3] was 3.77. The “Average Severity of Weekly Symptomatic RP Attacks, Change from Baseline, Mean” value [3] was −1.19, the “Average Severity of Weekly Symptomatic RP Attacks, Change from Baseline, Median” value [3] was −1.13 and the “Average Severity of Weekly Symptomatic RP Attacks, Percent Change from Baseline, Mean” value [3] was −19.39%. For the same compound, the “Average Severity of Weekly Symptomatic RP Attacks, Percent Change from Baseline, Median” value [3] was −17.81%, the “Average Severity (0-10) of Weekly Symptomatic RP Attacks, Mean” value [4] was 3.97 and the “Average Severity (0-10) of Weekly Symptomatic RP Attacks, Median” value [4] was 3.77. The “Average Severity of Weekly Symptomatic RP Attacks, Change from Baseline, Mean” value [4] was −1.19, the “Average Severity of Weekly Symptomatic RP Attacks, Change from Baseline, Median” value [4] was −1.13 and the “Average Severity of Weekly Symptomatic RP Attacks, Percent Change from Baseline, Mean” value [4] was −19.39%. For the same compound, the “Average Severity of Weekly Symptomatic RP Attacks, Percent Change from Baseline, Median” value [4] was −17.81%, the “Average Severity of Weekly RP Attacks (All Attacks), Change from Baseline, Mean” value [5] was −1.34 and the “Average Severity of Weekly RP Attacks (All Attacks), Change from Baseline, Median” value [5] was −1.32. For the same compound, the “Average Severity of Weekly RP Attacks (All Attacks), Mean” value (from here on “Average Severity … (All Attacks), Mean”) [5] was 3.62, the “Average Severity of Weekly RP Attacks (All Attacks), Median” value (“Average Severity … (All Attacks), Median” for short) [5] was 3.05 and the “Average Severity of Weekly RP Attacks (All Attacks), Percent Change from Baseline, Mean” value [5] was −23.02%. For the same compound, the “Average Severity of Weekly RP Attacks (All Attacks), Percent Change from Baseline, Median” value [5] was −21.20%, the “Average Severity of Weekly Symptomatic RP Attacks (Mean)” value [6] was 3.34 and the “Average Severity of Weekly Symptomatic RP Attacks (Median)” value [6] was 3.34. The “Average Severity of Weekly Symptomatic RP Attacks, Change from Baseline, Mean” value [6] was −1.22, the “Average Severity of Weekly Symptomatic RP Attacks, Change from Baseline, Median” value [6] was −1.22 and the “Average Severity of Weekly Symptomatic RP Attacks, Percent Change from Baseline, Mean” value [6] was −20.18%. For the same compound, the “Average Severity of Weekly Symptomatic RP Attacks, Percent Change from Baseline, Median” value [6] was −20.18%, the “Average Severity of Weekly Symptomatic RP Attacks (Mean)” value [7] was 5.23 and the “Average Severity of Weekly Symptomatic RP Attacks (Median)” value [7] was 5.23. For the same compound, the “Average Severity of Weekly Symptomatic RP Attacks, Change from Baseline, Mean” value [7] was −1.13, the “Average Severity of Weekly Symptomatic RP Attacks, Change from Baseline, Median” value [7] was −1.13 and the “Average Severity of Weekly Symptomatic RP Attacks, Percent Change from Baseline, Mean” value [7] was −17.81%. The “Average Severity of Weekly Symptomatic RP Attacks, Percent Change from Baseline, Median” value [7] was −17.81%, the “Average Severity of Weekly RP Attacks (All Attacks), Change from Baseline, Mean” value [8] was −1.34 and the “Average Severity of Weekly RP Attacks (All Attacks), Change from Baseline, Median” value [8] was −1.32. For the same compound, the “Average Severity … (All Attacks), Mean” value [8] was 3.62, the “Average Severity … (All Attacks), Median” value [8] was 3.05 and the “Average Severity of Weekly RP Attacks (All Attacks), Percent Change from Baseline, Mean” value [8] was −23.02%. For the same compound, the “Average Severity of Weekly RP Attacks (All Attacks), Percent Change from Baseline, Median” value [8] was −21.20%, the “Average Severity of Weekly RP Attacks (All Attacks), Percent Change from Baseline, Mean” value [9] was −23.94% and the “Average Severity of Weekly RP Attacks (All Attacks), Percent Change from Baseline, Median” value [9] was −23.94%. For the same compound, the “Average Severity of Weekly RP Attacks (All Attacks), Change from Baseline, Mean” value [10] was −1.35, the “Average Severity of Weekly RP Attacks (All Attacks), Change from Baseline, Median” value [10] was −1.35 and the “Average Severity … (All Attacks), Mean” value [10] was 2.97. For the same compound, the “Average Severity … (All Attacks), Median” value [10] was 2.97, the “Average Severity of Weekly RP Attacks (All Attacks), Percent Change from Baseline, Mean” value [11] was −21.20% and the “Average Severity of Weekly RP Attacks (All Attacks), Percent Change from Baseline, Median” value [11] was −21.20%. The “Average Severity of Weekly RP Attacks (All Attacks), Change from Baseline, Mean” value [12] was −1.32, the “Average Severity of Weekly RP Attacks (All Attacks), Change from Baseline, Median” value [12] was −1.32 and the “Average Severity … (All Attacks), Mean” value [12] was 4.90. For the same compound, the “Average Severity … (All Attacks), Median” value [12] was 4.90, the “Average Severity (0-10) of Weekly Symptomatic RP Attacks, Mean” value [13] was 5.06 and the “Average Severity (0-10) of Weekly Symptomatic RP Attacks, Median” value [13] was 5.06. The “Average Severity of Weekly Symptomatic RP Attacks, Change from Baseline, Mean” value [13] was −1.79, the “Average Severity of Weekly Symptomatic RP Attacks, Change from Baseline, Median” value [13] was −1.79 and the “Average Severity of Weekly Symptomatic RP Attacks, Percent Change from Baseline, Mean” value [13] was −26.14%. For the same compound, the “Average Severity of Weekly Symptomatic RP Attacks, Percent Change from Baseline, Median” value [13] was −26.14%, the “Average Severity (0-10) of Weekly Symptomatic RP Attacks, Mean” value [14] was 2.85 and the “Average Severity (0-10) of Weekly Symptomatic RP Attacks, Median” value [14] was 2.40. For the same compound, the “Average Severity of Weekly Symptomatic RP Attacks, Change from Baseline, Mean” value [14] was −1.06, the “Average Severity of Weekly Symptomatic RP Attacks, Change from Baseline, Median” value [14] was −0.33 and the “Average Severity of Weekly Symptomatic RP Attacks, Percent Change from Baseline, Mean” value [14] was −24.28%. For the same compound, the “Average Severity of Weekly Symptomatic RP Attacks, Percent Change from Baseline, Median” value [14] was −12.02%.
